From ChEMBL document CHEMBL1629593 (Antimicrob Agents Chemother, 2009)
Calls of active or inactive are those of the source. The rule behind the calls is not given here.

Legend:
[1] = tested on: Staphylococcus aureus; experiment: Antibacterial activity against heterogeneous vancomycin-intermediate Staphylococcus aureus Mu3 infected in […] pharmacodynamic model at 2500 mg treated every 12 hrs measured after 24 hrs post dose; format: functional
[2] = tested on: Staphylococcus aureus; experiment: fCmin in heterogeneous vancomycin-intermediate Staphylococcus aureus Mu3 infected in vivo pharmacodynamic model at 700 mg treated every 12 hrs; format: ADME, organism-based
[3] = Ratio of fAUC in […] pharmacodynamic model to MIC for heterogeneous vancomycin-intermediate Staphylococcus aureus 1629 at 4000 mg treated every 12 hrs; format: functional
[4] = Ratio of fAUC in […] pharmacodynamic model to MIC for heterogeneous vancomycin-intermediate Staphylococcus aureus Mu3 at 2250 mg treated every 12 hrs; format: functional
[5] = Ratio of fAUC in […] pharmacodynamic model to MIC for heterogeneous vancomycin-intermediate Staphylococcus aureus Mu3 at 2000 mg treated every 12 hrs; format: functional
[6] = Ratio of fAUC in […] pharmacodynamic model to MIC for heterogeneous vancomycin-intermediate Staphylococcus aureus Mu3 at 5000 mg treated every 12 hrs; format: functional
[7] = tested on: Staphylococcus aureus; experiment: fCmin in heterogeneous vancomycin-intermediate Staphylococcus aureus Mu3 infected […] pharmacodynamic model at 2000 mg treated every 12 hrs; format: ADME, organism-based
[8] = tested on: Staphylococcus aureus; experiment: Antibacterial activity against heterogeneous vancomycin-intermediate Staphylococcus aureus Mu3 infected in […] pharmacodynamic model at 2500 mg treated every 12 hrs measured after 48 hrs post dose; format: functional
[9] = tested on: Staphylococcus aureus; experiment: fCmin in heterogeneous vancomycin-intermediate Staphylococcus aureus 1629 infected in vivo pharmacodynamic model at 2000 mg treated every 12 hrs; format: ADME, organism-based
[10] = tested on: Staphylococcus aureus; experiment: fCmin in multidrug-resistant Staphylococcus aureus 3286 infected in vivo pharmacodynamic model at 1500 mg treated every 12 hrs; format: ADME, organism-based
[11] = Ratio of fAUC in […] pharmacodynamic model to MIC for heterogeneous vancomycin-intermediate Staphylococcus aureus 1629 at 750 mg treated every 12 hrs; format: functional
[12] = tested on: Staphylococcus aureus; experiment: fCmin in heterogeneous vancomycin-intermediate Staphylococcus aureus 1629 infected […] pharmacodynamic model at 1000 mg treated every 12 hrs; format: ADME, organism-based
[13] = Ratio of fAUC in […] pharmacodynamic model to MIC for multidrug-resistant Staphylococcus aureus 3286 at 4000 mg treated every 12 hrs; format: functional
[14] = Ratio of fAUC in […] pharmacodynamic model to MIC for multidrug-resistant Staphylococcus aureus; format: functional
[15] = Ratio of fAUC in […] pharmacodynamic model to MIC for heterogeneous vancomycin-intermediate Staphylococcus aureus Mu3 at 2500 mg treated every 12 hrs; format: functional
[16] = tested on: Staphylococcus aureus; experiment: Antibacterial activity against heterogeneous vancomycin-intermediate Staphylococcus aureus 1629 infected in […] pharmacodynamic model at 700 mg treated every 12 hrs measured after 72 hrs post dose; format: functional
[17] = tested on: Staphylococcus aureus; experiment: Antibacterial activity against multidrug-resistant Staphylococcus aureus 3286 infected in […] pharmacodynamic model at 2000 mg treated every 12 hrs measured after 48 hrs post dose; format: functional
[18] = tested on: Staphylococcus aureus; experiment: fCmin in heterogeneous vancomycin-intermediate Staphylococcus aureus 1629 infected in vivo pharmacodynamic model at 1500 mg treated every 12 hrs; format: ADME, organism-based
[19] = tested on: Staphylococcus aureus; experiment: fCmin in multidrug-resistant Staphylococcus aureus 3286 infected […] pharmacodynamic model at 4000 mg treated every 12 hrs; format: ADME, organism-based
[20] = tested on: Staphylococcus aureus; experiment: Antibacterial activity against heterogeneous vancomycin-intermediate Staphylococcus aureus Mu3 infected in […] pharmacodynamic model at 1000 mg treated every 12 hrs measured after 24 hrs post dose; format: functional
[21] = tested on: Staphylococcus aureus; experiment: fCmin in heterogeneous vancomycin-intermediate Staphylococcus aureus Mu3 infected […] pharmacodynamic model at 1000 mg treated every 12 hrs; format: ADME, organism-based
[22] = tested on: Staphylococcus aureus; experiment: Antibacterial activity against multidrug-resistant Staphylococcus aureus 3286 infected in […] pharmacodynamic model at 4000 mg treated every 12 hrs measured after 72 hrs post dose; format: functional
[23] = tested on: Staphylococcus aureus; experiment: fCmin in heterogeneous vancomycin-intermediate Staphylococcus aureus Mu3 infected in vivo pharmacodynamic model at 2250 mg treated every 12 hrs; format: ADME, organism-based
[24] = Ratio of fAUC in […] pharmacodynamic model to MIC for multidrug-resistant Staphylococcus aureus 3286 at 2000 mg treated every 12 hrs; format: functional
[25] = Ratio of fAUC in […] pharmacodynamic model to MIC for heterogeneous vancomycin-intermediate Staphylococcus aureus Mu3 at 750 mg treated every 12 hrs; format: functional
[26] = Ratio of fAUC in […] pharmacodynamic model to MIC for heterogeneous vancomycin-intermediate Staphylococcus aureus Mu3 at 1000 mg treated every 12 hrs; format: functional
[27] = tested on: Staphylococcus aureus; experiment: Antibacterial activity against heterogeneous vancomycin-intermediate Staphylococcus aureus Mu3 infected in […] pharmacodynamic model at 1500 mg treated every 12 hrs measured after 48 hrs post dose; format: functional
[28] = tested on: Staphylococcus aureus; experiment: Antibacterial activity against multidrug-resistant Staphylococcus aureus 3286 infected in in vitro pharmacodynamic model at 1000 to 2000 mg treated every 12 hrs using 10^6 CFU/ml inoculum by time-kill analysis; format: functional, organism-based
[29] = tested on: Staphylococcus aureus; experiment: fCmin in heterogeneous vancomycin-intermediate Staphylococcus aureus Mu3 infected in vivo pharmacodynamic model at 5000 mg treated every 12 hrs; format: ADME, organism-based
[30] = Ratio of fAUC in […] pharmacodynamic model to MIC for heterogeneous vancomycin-intermediate Staphylococcus aureus 1629 at 2000 mg treated every 12 hrs; format: functional
[31] = tested on: Staphylococcus aureus; experiment: fCmin in heterogeneous vancomycin-intermediate Staphylococcus aureus 1629 infected in vivo pharmacodynamic model at 1750 mg treated every 12 hrs; format: ADME, organism-based
[32] = tested on: Staphylococcus aureus; experiment: fCmin in heterogeneous vancomycin-intermediate Staphylococcus aureus Mu3 infected in vivo pharmacodynamic model at 1500 mg treated every 12 hrs; format: ADME, organism-based
[33] = Ratio of fAUC in […] pharmacodynamic model to MIC for heterogeneous vancomycin-intermediate Staphylococcus aureus 1629 at 1000 mg treated every 12 hrs; format: functional
[34] = tested on: Staphylococcus aureus; experiment: fCmin in heterogeneous vancomycin-intermediate Staphylococcus aureus Mu3 infected in vivo pharmacodynamic model at 2500 mg treated every 12 hrs; format: ADME, organism-based
[35] = tested on: Staphylococcus aureus; experiment: fCmin in multidrug-resistant Staphylococcus aureus 3286 infected […] pharmacodynamic model at 1000 mg treated every 12 hrs; format: ADME, organism-based
[36] = tested on: Staphylococcus aureus; experiment: fCmin in multidrug-resistant Staphylococcus aureus 3286 infected in vivo pharmacodynamic model at 2000 mg treated every 12 hrs; format: ADME, organism-based
[37] = tested on: Staphylococcus aureus; experiment: fCmin in heterogeneous vancomycin-intermediate Staphylococcus aureus 1629 infected in vivo pharmacodynamic model at 750 mg treated every 12 hrs; format: ADME, organism-based
[38] = tested on: Staphylococcus aureus; experiment: Antibacterial activity against heterogeneous vancomycin-intermediate Staphylococcus aureus Mu3 infected in […] pharmacodynamic model at 1000 mg treated every 12 hrs measured after 48 hrs post dose; format: functional
[39] = Ratio of fAUC in […] pharmacodynamic model to MIC for multidrug-resistant Staphylococcus aureus 3286 at 1000 mg treated every 12 hrs; format: functional
[40] = tested on: Staphylococcus aureus; experiment: fCmin in heterogeneous vancomycin-intermediate Staphylococcus aureus 1629 infected in vivo pharmacodynamic model at 4000 mg treated every 12 hrs; format: ADME, organism-based
[41] = Ratio of fAUC in […] pharmacodynamic model to MIC for multidrug-resistant Staphylococcus aureus 3286 at 1500 mg treated every 12 hrs; format: functional

## CN[C@H](CC(C)C)C(=O)N[C@H]1C(=O)N[C@@H](CC(N)=O)C(=O)N[C@H]2C(=O)N[C@H]3C(=O)N[C@H](C(=O)N[C@H](C(=O)O)c4cc(O)cc(O)c4-c4cc3ccc4O)[C@H](O)c3ccc(c(Cl)c3)Oc3cc2cc(c3O[C@@H]2O[C@H](CO)[C@@H](O)[C@H](O)[C@H]2O[C@H]2C[C@](C)(N)[C@H](O)[C@H](C)O2)Oc2ccc(cc2Cl)[C@H]1O [VANCOMYCIN]
[1]
  CFU/ml: 2
[2]
  fCmin: 3 mg/L
[3]
  fAUC/MIC: 644
[4]
  fAUC/MIC: 317
[5]
  fAUC/MIC: 269
[6]
  fAUC/MIC: 799
[7]
  fCmin: 11 mg/L
[8]
  CFU/ml: 2
[9]
  fCmin: 12 mg/L
[10]
  fCmin: 7 mg/L
[11]
  fAUC/MIC: 105
[12]
  fCmin: 3 mg/L
[13]
  fAUC/MIC: 2576
[14]
  fAUC/MIC: >=180
[15]
  fAUC/MIC: 374
[16]
  CFU/ml: 3
[17]
  CFU/ml: 0.5
[18]
  fCmin: 7 mg/L
[19]
  fCmin: 22 mg/L
[20]
  CFU/ml: 2
[21]
  fCmin: 4 mg/L
[22]
  CFU/ml: 0.5
[23]
  fCmin: 12 mg/L
[24]
  fAUC/MIC: 1084
[25]
  fAUC/MIC: 105
[26]
  fAUC/MIC: 168
[27]
  CFU/ml: 3
[28]
  Activity: Active
[29]
  fCmin: 26 mg/L
[30]
  fAUC/MIC: 271
[31]
  fCmin: 10 mg/L
[32]
  fCmin: 7 mg/L
[33]
  fAUC/MIC: 138
[34]
  fCmin: 16 mg/L
[35]
  fCmin: 3 mg/L
[36]
  fCmin: 12 mg/L
[37]
  fCmin: 3 mg/L
[38]
  CFU/ml: 3
[39]
  fAUC/MIC: 552
[40]
  fCmin: 22 mg/L
[41]
  fAUC/MIC: 992
